We go through six compounds from article PMC10135569, “Does Enhanced Structural Maturity of hiPSC-Cardiomyocytes Better for the Detection of Drug-Induced Cardiotoxicity?” (Biomolecules, 2023).

In data set [1] the test system is hiPSC-CMs (iCell2 Cardiomyocytes) 2D monolayers. Description: Membrane potential (action potential) recordings with FluoVolt voltage-sensitive dye on the CellOPTIQ platform. The note with it: for effect on APD90: positive control. It counts as cell-based, human. The protocol: (§1) Cardiomyocytes (FUJIFILM Cellular Dynamics, Madison, WI, USA) were kept at −190 °C and prepared for culture as per the manufacturer’s instructions.
(§2) Standard fibronectin vs. Matrix Plus well coating: The cells were cultured using two different coatings in a humidified incubator at 37 °C with 5% CO2. First, 96-well glass-bottomed plates (MatTek, Ashland, MA) were coated with fibronectin ([…] in PBS supplemented with Ca^2+ and Mg^2+; Sigma, St. Louis, MO, USA) (defining FM). Second, CELLvo^TM Matrix Plus (StemBioSys, San Antonio, TX, USA), which were pre-coated on 96 well glass bottom plates and kept at 4 °C. On the day of plating, CELLvo^TM Matrix Plus plates were transferred to room temperature, rehydrated with phosphate buffer saline (PBS), incubated for 1 h at 37 °C, and washed 2× with PBS. Cells were introduced at a density of 50,000 cells/well to allow the formation of a confluent monolayer in each well (defined as MM). The maintenance protocols followed the manufacturer’s instructions and used the iCell^2 Cardiomyocytes Maintenance media for media changes every 2 days. Experiments were performed between days 5 and 6, as recommended by the manufacturers. Before beginning an experiment, cells were washed in serum-free media (SF media) (Fluorobrite DMEM, Gibco, Thermo Fisher Scientific, Horsham, UK).
(§3) The drug powders were dissolved in DMSO, and four stock concentrations at 1000× the final target concentration were prepared in DMSO. For the experiment, an intermediate concentration 2× the target solution was prepared in SF media. The addition of drugs to the cells was accomplished by replacing 50% of the well volume with the intermediate 2× solution. The same procedure was done for vehicle control using DMSO. The experimental number n = 8/concentration/testing compound in the FM or MM condition, and n = 36 for each positive or negative control in the FM or MM condition.
Cultures of hiPSC-CMs (5–6 days post-plating) were treated with FluoVolt dye (1:1000, Invitrogen, Cat# F10488) in SF media and incubated for 20 min at 37 °C with 5% CO2 and 80% humidity. Multi-well plates were placed in the environmentally controlled stage incubator (37 °C, 5% CO2, water-saturated air atmosphere) (Okolab Inc. Burlingame, CA) of the CellOPTIQ® platform (Clyde Biosciences Ltd., Glasgow, Scotland). The FluoVolt signal was recorded from a 0.2 mm × 0.2 mm area using a 40× (numerical aperture: NA 0.6) Excitation wavelength was 470 ± 10 nm using a light-emitting diode (LED), and emitted light was collected by two photomultipliers (PMTs) at 510–560 nm (channel 1) and 590–650 nm (channel 2), respectively. LED, PMT, and associated power supplies and amplifiers were supplied by Cairn Research Ltd. (Kent, UK) and digitized at 10 kHz and stored on a computer hard drive. In the case of FluoVolt-based action potential recordings, the short wavelength (channel 1, […]) was analyzed for action potential features.
(§4) The dye FluoVolt is loaded into the surface membrane (outer leaflet), and the dye remains within the membrane for many dots, allowing intermittent voltage measurements over the experimental period. In this study, measurements were restricted to within 30 mins of application of the drug. The measurements were made on the same area before/after drug/DMSO addition. […] Baseline spontaneous electrical activity and the associated contractility signal were recorded by capturing 10 s segments of fluorescent signal and video for 2D plates and 15 s for organoids from each well prior to compound addition. Drugs were tested at four concentrations in n = 8 independent replicates (i.e., 8 wells from a single plating) at each concentration. A vehicle control was included for each drug. A 10 s or 15 s recording was then taken 30 min after exposure to the drug or vehicle with only one concentration applied/well.

Data set [2] has the same test system. Description: Contractility measurements using video imaging (ContractilityTool / MUSCLEMOTION). It counts as cell-based, human. The protocol:
as §1, §2, §3
as §4, with “applied/well. Offline analysis was performed using proprietary software (CellOPTIQ®).” for “applied/well.”
Short periods (10 s or 15 s) of video were analyzed using the ContractilityTool application (developed by F.L. Burton), which is an implementation of the MUSCLEMOTION algorithm.

For data set [3] the following is noted: listed in Supplementary Table S1; no reference given; cited from earlier work.
Where [4] appears, read: FM monolayer, 0.01 µM, 30 min, delta over DMSO 0.1%.
[5] abbreviates: FM monolayer, 0.1 µM, 30 min, delta over DMSO 0.1%.
The mark [6] stands for this setting: FM monolayer, 0.3 µM, 30 min, delta over DMSO 0.1%.
The mark [7] stands for this setting: FM monolayer, 1 µM, 30 min, delta over DMSO 0.1%.
[8] abbreviates: MM monolayer, 0.01 µM, 30 min, delta over DMSO 0.1%.
[9] abbreviates: MM monolayer, 0.1 µM, 30 min, delta over DMSO 0.1%.
[10] abbreviates: MM monolayer, 0.3 µM, 30 min, delta over DMSO 0.1%.
[11] abbreviates: MM monolayer, 1 µM, 30 min, delta over DMSO 0.1%.
Where [12] appears, read: range of concentrations, negative control, FM and MM.

Entries after “also recorded” stand apart in the source; their conditions may differ. Where two headings read alike, the source gives them in different places.

For `CC(=O)OCC[N+](C)(C)C` [acetylcholine], in data set [1] (both FM and MM, concentration not given), the “effect on beating rate / spontaneous rate (in words)” value is “decrease”. Further, the “changes in the APD” value in data set [1] (both groups (FM and MM)) is below 10%.
With `COC(=O)C1=C(C)NC(C)=C(C(=O)OC)C1c1ccccc1[N+](=O)[O-]` [Nifedipine], the “effect on APD90” value in data set [1] (100 nM, 2D monolayers on fibronectin and Matrix Plus) is “shortened; also recorded: reduced”. Also, in data set [2] (100 nM, 2D monolayers on fibronectin and Matrix Plus, positive control), the “effect on duration of contraction” value is listed as “shortened; also recorded: reduced”.
As to `CN(CCOc1ccc(NS(C)(=O)=O)cc1)CCc1ccc(NS(C)(=O)=O)cc1` [Dofetilide], the “effect on APD90” value in data set [1] (10 nM, both 2D models) is “significantly prolonged”. Moreover, the “Free Cmax” value in data set [3] was 2.7 nM.
Regarding `COCCOC(=O)C1=C(C)NC(C)=C(C(=O)OC(C)C)C1c1cccc([N+](=O)[O-])c1` (centres unmarked) [Nimodipine], the “Free Cmax” value in data set [3] was 69 nM.
Regarding `NC(=Nc1ccc(OCCCCCOc2ccc(N=C(N)c3ccccc3)cc2)cc1)c1ccccc1` [PA-6], the “APD30 (%DD)” value stood at 108±3.6 %DD in data set [1] (setting [4]); 99±3 %DD in data set [1] (setting [5]); 105±2.4 %DD in data set [1] (setting [6]); 110±1.3 %DD in data set [1] (setting [7]); 107±1.9 %DD in data set [1] (setting [8]); 105±1 %DD in data set [1] (setting [9]). The “APD30 (%DD)” value in data set [1] (setting [10]) was found to be 107±1.9 %DD; in data set [1] (setting [11]), 107±1.5 %DD. Further, the “APD90 (%DD)” value in data set [1] (setting [4]) worked out at 104±1.1 %DD; in data set [1] (setting [5]), 107±1.4 %DD; in data set [1] (setting [6]) it was 111±0.8 %DD; in data set [1] (setting [7]), 116±1.3 %DD; in data set [1] (setting [8]), 103±1.5 %DD; in data set [1] (setting [9]) it was 111±2.2 %DD. Besides, the entries for the “APD90 (%DD)” value in data set [1] (setting [10]) and in data set [1] (setting [11]) were 111±1 %DD and 111±1.7 %DD, respectively. In addition, the “CL (%DD)” value in data set [1] (setting [4]) came to 101±0.8 %DD; in data set [1] (setting [5]) it was 98±2.3 %DD; in data set [1] (setting [6]), 101±2.5 %DD; in data set [1] (setting [7]), 108±1.4 %DD; in data set [1] (setting [8]) it was 97±0.7 %DD; in data set [1] (setting [9]), 100±0.5 %DD. Also, the entries for the “CL (%DD)” value in data set [1] (setting [10]) and in data set [1] (setting [11]) were 102±0.8 %DD and 108±2.4 %DD, respectively. Moreover, the “Trise (%DD)” value in data set [1] (setting [4]) stood at 101±17.4 %DD; in data set [1] (setting [5]), 70±6.1 %DD; in data set [1] (setting [6]) it was 89±10.8 %DD; in data set [1] (setting [7]), 128 ± 15.8 %DD; in data set [1] (setting [8]) it was 119±25.1 %DD; in data set [1] (setting [9]), 74±17.9 %DD. The “Trise (%DD)” value stood at 96±12.7 %DD in data set [1] (setting [10]) and 138±14.2 %DD in data set [1] (setting [11]). Also, in data set [1] (both FM and MM monolayers, concentration not given), the “effect on APD90 (in words)” value is reported as “mild APD90 prolongation”. Moreover, the “effect of selective Kir2.1 channel block” value in data set [1] (both experimental groups) is listed as “lack of effect”. The “CtAmp (%DD)” value in data set [2] (setting [4]) is on record as 103±8.8 %DD; in data set [2] (setting [5]), 111±14.2 %DD; in data set [2] (setting [6]) it was 105±10.2 %DD; in data set [2] (setting [7]), 111 ± 8.1 %DD; in data set [2] (setting [8]), 127±13 %DD; in data set [2] (setting [9]), 99±11.2 %DD. Moreover, the results for the “CtAmp (%DD)” value in data set [2] (setting [10]) and in data set [2] (setting [11]) were 135±22.2 %DD and 114±9.8 %DD, respectively. For the same compound, the “CtD50 (%DD)” value in data set [2] (setting [4]) worked out at 104±1.7 %DD; in data set [2] (setting [5]), 105±1.8 %DD; in data set [2] (setting [6]) it was 106±2.1 %DD; in data set [2] (setting [7]), 112±2.5 %DD; in data set [2] (setting [8]), 101±1.3 %DD; in data set [2] (setting [9]) it was 103±1.1 %DD. For the same compound, the figures for the “CtD50 (%DD)” value in data set [2] (setting [10]) and in data set [2] (setting [11]) were 105±1.9 %DD and 107±1.2 %DD, respectively.
For `O=C(O)COCCN1CCN(C(c2ccccc2)c2ccc(Cl)cc2)CC1` (centres unmarked) [Cetirizine], the activity at 0.1 µM in data set [1] (Homo sapiens, Cardiomyocyte, 0.5 h, FM monolayer, 0.1 µM, 30 min, delta over DMSO 0.1%, read-out: Trise (%DD)) was 154 ± 32.6%; in data set [1] (Homo sapiens, Cardiomyocyte, 0.5 h, MM monolayer, 0.1 µM, 30 min, delta over DMSO 0.1%, read-out: Trise (%DD)), 146 ± 16.9%; in data set [2] (Homo sapiens, Cardiomyocyte, 0.5 h, FM monolayer, 0.1 µM, 30 min, delta over DMSO 0.1%, read-out: CtAmp (%DD)) it was 72 ± 13.3%. Also, the activity at 0.3 µM in data set [1] (Homo sapiens, Cardiomyocyte, 0.5 h, FM monolayer, 0.3 µM, 30 min, delta over DMSO 0.1%, read-out: Trise (%DD)) amounted to 127 ± 16.8%; in data set [2] (Homo sapiens, Cardiomyocyte, 0.5 h, FM monolayer, 0.3 µM, 30 min, delta over DMSO 0.1%, read-out: CtAmp (%DD)), 87 ± 14.6%. Besides, the activity at 3 µM in data set [1] (Homo sapiens, Cardiomyocyte, 0.5 h, FM monolayer, 3 µM, 30 min, delta over DMSO 0.1%, read-out: Trise (%DD)) was found to be 122 ± 8.8%; in data set [2] (Homo sapiens, Cardiomyocyte, 0.5 h, MM monolayer, 3 µM, 30 min, delta over DMSO 0.1%, read-out: CtAmp (%DD)), 87 ± 5.3%. The “change in the voltage parameters” value in data set [1] (setting [12]) is “No change”. Besides, the activity at 1 µM in data set [2] (Homo sapiens, Cardiomyocyte, 0.5 h, FM monolayer, 1 µM, 30 min, delta over DMSO 0.1%, read-out: CtAmp (%DD)) turned out to be 129 ± 32.9%; in data set [2] (Homo sapiens, Cardiomyocyte, 0.5 h, MM monolayer, 1 µM, 30 min, delta over DMSO 0.1%, read-out: CtAmp (%DD)) it was 118 ± 14.2%. The “change in the contractility parameters” value in data set [2] (setting [12]) is reported as “No change”.
